This note sets out measurements from ChEMBL document CHEMBL1139566, “Discovery of AICAR Tfase inhibitors that disrupt requisite enzyme dimerization” (Bioorg Med Chem Lett, 2005).

Molecules are shown by their SMILES. Calls of active or inactive are those of the source. The calls are words filed in the database; no cut-off is given here. Peptide text beside a SMILES is read from it. * marks the point of attachment. NHPhenethyl = c1ccc(CCN*)cc1; Bz = O=C(c1ccccc1)*

As usually defined, the Ki is a dissociation constant, usually derived from enzyme kinetics or from competition with a known ligand. Read a low Ki as tighter binding.

For the first assay, the target named is T1, Bifunctional purine biosynthesis protein ATIC (Homo sapiens, UniProt P31939). Description: Inhibition constant against AICAR formyltransferase.
Target sequence in this assay (P31939 whole entry): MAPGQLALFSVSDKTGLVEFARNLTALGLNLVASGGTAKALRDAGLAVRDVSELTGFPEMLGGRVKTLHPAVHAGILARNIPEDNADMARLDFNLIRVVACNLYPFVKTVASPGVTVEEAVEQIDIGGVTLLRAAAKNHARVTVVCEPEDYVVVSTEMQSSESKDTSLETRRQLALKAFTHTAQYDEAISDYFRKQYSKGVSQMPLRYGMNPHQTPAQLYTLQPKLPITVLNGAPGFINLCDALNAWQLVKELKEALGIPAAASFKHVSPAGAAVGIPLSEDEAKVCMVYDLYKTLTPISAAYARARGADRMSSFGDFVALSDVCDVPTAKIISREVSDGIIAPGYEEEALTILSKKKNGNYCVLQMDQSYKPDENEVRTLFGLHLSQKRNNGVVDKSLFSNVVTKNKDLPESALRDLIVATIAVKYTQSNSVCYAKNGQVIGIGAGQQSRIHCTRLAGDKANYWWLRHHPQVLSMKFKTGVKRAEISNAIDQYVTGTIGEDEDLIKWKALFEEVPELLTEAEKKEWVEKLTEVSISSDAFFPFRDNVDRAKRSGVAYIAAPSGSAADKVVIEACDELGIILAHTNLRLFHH
Regarding `O=C(CNC(=O)CNC(=O)c1cccc(I)c1)NCCc1ccccc1`, the Ki came out at 8 µM.
On to `COc1ccc(CNC(=O)CN(CC(=O)NCCc2ccccc2)C(=O)CNC(=O)c2cccc(I)c2)cc1`, for which the affinity corresponds to a Ki of 3.1 µM.

The target in a further assay is T1, Bifunctional purine biosynthesis protein ATIC. The assay is described as follows: Average inhibition of AICAR formyltransferase at 25 uM and 50 uM concentration relative to cappsin 2; Inactive.
Target sequence in this assay (P31939 whole entry, looked up): as the sequence (P31939 whole entry) above
Regarding `O=C(CNC(=O)CNC(=O)c1ccccc1)NCCc1ccccc1` (Bz-Gly-Gly-NHPhenethyl), the inhibition result is “inactive”.
The same measure, in the same setting: the value for `COc1cccc(C(=O)NCC(=O)NCC(=O)NCCc2ccccc2)c1` was “inactive”.
On the same count and under the same terms, the result for `CCCNC(=O)CNC(=O)CNC(=O)c1cccc(I)c1` reads “inactive”.
The same measure, in the same setting: the value for `O=C(CNC(=O)c1cccc(I)c1)NCC(=O)OCCc1ccccc1` was “inactive”; that for `O=C(CNC(=O)CNC(=O)c1cccc([N+](=O)[O-])c1)NCCc1ccccc1` was “inactive”.
`CN(CC(=O)NCCc1ccccc1)C(=O)CNC(=O)c1cccc(I)c1`: the inhibition entry is “inactive”.
As to `Cc1cccc(C(=O)NCC(=O)NCC(=O)NCCc2ccccc2)c1`, the inhibition entry is “inactive”.
On the same count and under the same terms, the value for `O=C(CNC(=O)CNC(=O)c1ccccc1I)NCCc1ccccc1` was “inactive”; that for `COC(=O)CN(CC(=O)NCCc1ccccc1)C(=O)CNC(=O)c1cccc(I)c1` was “inactive”; that for `CNC(=O)CNC(=O)CNC(=O)c1cccc(I)c1` was “inactive”.
